The assay can be described thus: viability loss in fusion assay cells – cell-based, MAGI and MAGI-HeLa co-culture, cytotoxicity control for HIV-1 fusion inhibitor project, dose response (AID 2286).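 For all read-outs here: cells exposed to compound for at least 64 h before ATP readout; 100% = median of DMSO vehicle wells with no ATP signal meaning 0%.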 As to conditions: MAGI-CCR5 cells viability, CellTiter-Glo ATP luminescence; for minimum viability: measured here: MAGI minimum viability across doses.
Setting [1] is: MAGI-HeLa co-culture viability, at 50 µM, stronger effect = lower value.
Setting [2] is: at 6.25 µM, stronger effect = lower value.
Where [3] appears, read: at 3.13 µM, stronger effect = lower value.
Setting [4] is: at 1.56 µM, stronger effect = lower value.
Where [5] appears, read: at 12.5 µM, stronger effect = lower value.
Where [6] appears, read: at 0.78 µM, stronger effect = lower value.

Molecules are shown by their SMILES. The source made the active and inactive calls.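 Rule for the calls: active = minimum cell viability of 80% or lower across the dose range, counted as toxic; inactive = minimum cell viability above 80%.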

Here are results for 42 molecules from PubChem BioAssay AID2286 (Southern Research Specialized Biocontainment Screening …, 2010).

In the case of `CC(C)CS(=O)(=O)C1=NSC2=NC(=O)/C(=C\c3ccc(OC(=O)c4ccco4)cc3)C(=N)N21`, the viability – broadly, a read-out of living cells in per cent, often relative to untreated cells – by setting is: under setting [1], 104%; (at 50 µM (top of the series)) 95.1% (inactive). In addition, the minimum viability under setting [2] was determined as 85.3%.
For the molecule `CC(C)S(=O)(=O)C1=NSC2=NC(=O)/C(=C\c3ccc(-c4cccc(C(=O)O)c4)o3)C(=N)N21`, the viability is, setting by setting: under setting [1], 90.9%; (at 50 µM (top of the series)) 101% (inactive). Besides, the minimum viability under setting [3] turned out to be 85.2%.
Regarding `O=C1NC(=S)N(c2ccc(F)cc2)C(=O)/C1=C/c1ccco1`, the viability is, setting by setting: under setting [1], 122%; (at 50 µM (top of the series)) 131% (inactive). The minimum viability under setting [4] came out at 105%.
Turning to `O=C(O)CN1C(=O)/C(=C\c2cc(Br)ccc2OCc2ccc(F)cc2)SC1=S`, the viability is, setting by setting: under setting [1], 91.5%; (at 50 µM (top of the series)) 97.7% (inactive). Further, for the setting “at 50 µM, stronger effect = lower value”, the minimum viability was determined as 97.7%.
Take `COc1cc(/C=C2/SC(=S)N(CC(=O)O)C2=O)ccc1OCC(=O)Nc1ccc(C)c(C)c1`: the viability was 107% under setting [1] and 103% (inactive) (at 50 µM (top of the series)). Besides, the minimum viability (at 0.2 µM, stronger effect = lower value) was 98.9%.
Take `O=C(Nc1ccc(C(=O)O)cc1)/C(=C\C=C\c1ccccc1)NC(=O)c1cccc(Br)c1`: the viability was 85.1% under setting [1] and 89.9% (inactive) (at 50 µM (top of the series)). In addition, the minimum viability under setting [2] was determined as 83.2%.
With `N#Cc1c(SCC(=O)Nc2nc3ccc(Br)cc3s2)sc2c(O)cc(=O)[nH]c12`, the viability by setting is: under setting [1], 81.1%; (at 50 µM (top of the series)) 83.3% (inactive). Under “at 50 µM, stronger effect = lower value”, the minimum viability was found to be 83.3%.
Take `O=C(COc1ccc(Cl)cc1Cl)Nc1ccc(C(=O)Nc2ccccc2C(=O)O)cc1`: the viability under setting [1] came to 92.6%. Besides, the minimum viability (at 50 µM, stronger effect = lower value) turned out to be 71.9%.
`O=c1/c(=C\c2cc([N+](=O)[O-])cc([N+](=O)[O-])c2O)sc2nc3ccccc3n12`: the viability runs as follows: under setting [1], 115%; (at 50 µM (top of the series)) 104% (inactive). Besides, the minimum viability under setting [2] was determined as 97.5%.
Take `COc1cc(C(c2c(C(=O)O)[nH]c3ccccc23)c2c(C(=O)O)[nH]c3ccccc23)ccc1OCc1ccccc1`: the viability is, setting by setting: under setting [1], 90.3%; (at 50 µM (top of the series)) 85.8% (inactive). In addition, the minimum viability under setting [5] amounted to 82.7%.
On to `CCOC(=O)C1=C(C)N=c2s/c(=C/c3ccc(OCC(=O)O)cc3)c(=O)n2C1c1ccc(SC)cc1` (stereo unspecified), for which the viability is 101% under setting [1] and 88.1% (inactive) (at 50 µM (top of the series)). Besides, the minimum viability (at 50 µM, stronger effect = lower value) worked out at 88.1%.
In the case of `Cc1ccc(-c2cc(C(=O)Nc3ccc(S(=O)(=O)Nc4onc(C)c4C)cc3)c3ccccc3n2)cc1`, the viability is, setting by setting: under setting [1], 89.9%; (at 50 µM (top of the series)) 98.7% (inactive). Further, the minimum viability under setting [3] is 86%.
As to `Cc1ccc(-n2cccc2/C=C2/C(=N)N3C(=NC2=O)SN=C3S(C)(=O)=O)cc1Cl`, under setting [1], the viability turned out to be 96.7%. Further, the minimum viability (at 50 µM, stronger effect = lower value) is 77.3%.
For the molecule `CCc1nnc(NS(=O)(=O)c2ccc(NC(=O)/C=C/c3ccccc3Cl)cc2)s1`, the viability was 109% under setting [1] and 96.3% (inactive) (at 50 µM (top of the series)). The minimum viability under setting [4] is 95.9%.
On to `CC(C)NC(=O)c1sc(=S)n2c1[nH]c(=O)c1ccc(C(=O)NCCc3ccc(Cl)cc3)cc12`, for which the viability under setting [1] was 104%. Moreover, the minimum viability (at 50 µM, stronger effect = lower value) stood at 55.2%.
Turning to `O=C1/C(=C2\C(=O)N(Cc3ccc(F)cc3)c3ccccc32)SC(=S)N1CCS(=O)(=O)O`, the viability is, setting by setting: under setting [1], 114%; (at 50 µM (top of the series)) 99.5% (inactive). Where the note is “at 50 µM, stronger effect = lower value”, the minimum viability came out at 99.5%.
On to `O=C(CCN1C(=O)/C(=C\c2ccccc2F)SC1=S)Nc1ccc(C(=O)O)c(O)c1`, for which the viability runs as follows: under setting [1], 114%; (at 50 µM (top of the series)) 93.9% (inactive). In addition, the minimum viability under setting [3] came to 85.5%.
Consider `Cc1c(Cl)cccc1NS(=O)(=O)c1ccc2c(c1)C1C=CCC1C(c1ccc(C(=O)O)cc1)N2` (stereo unspecified), for which the viability is, setting by setting: under setting [1], 121%; (at 50 µM (top of the series)) 91% (inactive). Also, the minimum viability under setting [4] stood at 87%.
On to `Cc1ccc(S(=O)(=O)/N=C2/NC(=O)/C(=C/c3cc([N+](=O)[O-])ccc3O)S2)cc1`, for which the viability is, setting by setting: under setting [1], 99.3%; (at 50 µM (top of the series)) 86% (inactive). Further, the minimum viability (at 50 µM, stronger effect = lower value) stood at 86%.
Turning to `COc1cc(/C=C2\SC(=Nc3ccccc3)N(CCc3c[nH]c4ccccc34)C2=O)ccc1OC(C)C(=O)O` (stereo unspecified), the viability was 103% under setting [1] and 101% (inactive) (at 25 µM (top of the series)). Also, under setting [2], the minimum viability came to 95.5%.
Take `CCS(=O)(=O)C1=NSC2=NC(=O)/C(=C\c3ccc(OS(=O)(=O)c4ccccc4)cc3)C(=N)N21`: the viability under setting [1] was 85.9%. Further, the minimum viability (at 50 µM, stronger effect = lower value) was 74.9%.
Turning to `COc1ccc(N2C(=O)/C(=C/c3ccco3)C(=O)NC2=S)cc1`, the viability runs as follows: under setting [1], 86.3%; (at 50 µM (top of the series)) 100% (inactive). Also, the minimum viability under setting [4] was found to be 84.8%.
Regarding `O=C(Nc1cc(C(=O)Nc2ccccc2C(=O)O)cc(C(=O)Nc2ccccc2C(=O)O)c1)c1ccccc1`, the viability was 122% under setting [1] and 113% (inactive) (at 50 µM (top of the series)). Besides, under setting [2], the minimum viability was found to be 90.9%.
As to `O=C(O)CCN1C(=O)/C(=C\c2cccc(OCC(=O)Nc3ccc(Cl)cc3)c2)SC1=S`, the viability under setting [1] came to 88%. The minimum viability (at 50 µM, stronger effect = lower value) was 73.5%.
Regarding `CCOc1cc(/C=C2\SC(=S)N(C(C(=O)O)c3ccccc3)C2=O)ccc1O` (stereo unspecified), the viability is, setting by setting: under setting [1], 90.8%; (at 50 µM (top of the series)) 96.9% (inactive). Further, the minimum viability under setting [3] came out at 85.8%.
As to `COc1ccc(-c2cc(-c3ccc(Cl)cc3)c(C#N)c(SCC(=O)O)n2)cc1`, the viability is 96.4% under setting [1] and 82.1% (inactive) (at 50 µM (top of the series)). In addition, where the note is “at 50 µM, stronger effect = lower value”, the minimum viability was 82.1%.
Turning to `Cc1cn2c(N)c(C=C3C=C(Cl)C(=O)C(Cl)=C3)c(=O)nc2s1`, the viability runs as follows: under setting [1], 105%; (at 50 µM (top of the series)) 83.9% (inactive). Further, for the setting “at 25 µM, stronger effect = lower value”, the minimum viability worked out at 81.8%.
`N#Cc1c(-c2ccccc2)nc(SCc2cccc(Cl)c2)[nH]c1=O`: the viability was 101% under setting [1] and 95.8% (inactive) (at 50 µM (top of the series)). Where the note is “at 25 µM, stronger effect = lower value”, the minimum viability came to 88%.
Turning to `CN1C(=O)/C(=C/c2ccc(C(=O)Nc3ccc(O)cc3C(=O)O)cc2)SC1=S`, the viability reads like this: under setting [1], 104%; (at 50 µM (top of the series)) 91% (inactive). The minimum viability under setting [5] was determined as 87.9%.
Regarding `O=C(CCN1C(=O)/C(=C/c2ccccc2Cl)SC1=S)Nc1ccccc1C(=O)O`, the viability runs as follows: under setting [1], 109%; (at 50 µM (top of the series)) 98.3% (inactive). Also, under setting [6], the minimum viability stood at 87.5%.
With `CCS(=O)(=O)C1=NSC2=NC(=O)/C(=C\c3ccc(OS(=O)(=O)c4ccccc4)c(OC)c3)C(=N)N21`, the viability is 101% under setting [1] and 80.5% (inactive) (at 50 µM (top of the series)). For the same molecule, the minimum viability (at 50 µM, stronger effect = lower value) was 80.5%.
With `O=C(O)COc1ccc(Br)cc1C(c1c(C(=O)O)[nH]c2ccccc12)c1c(C(=O)O)[nH]c2ccccc12`, the viability reads like this: under setting [1], 95.6%; (at 50 µM (top of the series)) 91.8% (inactive). Also, the minimum viability (at 25 µM, stronger effect = lower value) turned out to be 88%.
With `O=C(O)c1ccc(Cl)c(S(=O)(=O)Nc2ccccc2C(=O)Nc2ccc(Cl)cc2)c1`, the viability under setting [1] amounted to 92.9% and the viability (at 50 µM (top of the series)) is 82.6% (inactive). For the same molecule, the minimum viability (at 50 µM, stronger effect = lower value) amounted to 82.6%.
In the case of `CCOc1ccc2nc(NC(=O)CSc3nc(-c4ccccc4)c(C#N)c(=O)[nH]3)sc2c1`, the viability was 125% under setting [1] and 105% (inactive) (at 50 µM (top of the series)). In addition, the minimum viability under setting [6] amounted to 92.7%.
Take `O=C(O)CCCN1C(=O)/C(=C/c2ccc(-c3nc4ccccc4s3)o2)SC1=S`: the viability under setting [1] was found to be 99.7% and the viability (at 50 µM (top of the series)) is 92.1% (inactive). Also, for the setting “at 0.1 µM, stronger effect = lower value”, the minimum viability came to 87.2%.
For the molecule `O=C(O)CSc1ncnc2c1sc1nc(-c3ccccc3)c3c(c12)CCC3`, the viability is 111% under setting [1] and 98.6% (inactive) (at 50 µM (top of the series)). Also, under setting [5], the minimum viability amounted to 92.4%.
As to `CC(C)(C)c1ccc2c(c1)OC(C(=O)N/N=C\c1ccc(-c3cccc(C(=O)O)c3)o1)CO2` (stereo unspecified), the viability is, setting by setting: under setting [1], 105%; (at 50 µM (top of the series)) 87.8% (inactive). Under setting [3], the minimum viability was 87.5%.
In the case of `COc1cc(OC)c2c(O)c3c(c(-c4c5c(c(O)c6c(OC)cc(OC)cc46)CO[C@@H](C)[C@H]5O)c2c1)[C@H](O)[C@H](C)OC3`, the viability reads like this: under setting [1], 102%; (at 50 µM (top of the series)) 103% (inactive). Besides, the minimum viability under setting [5] was 88.2%.
With `O=C(O)c1ccccc1NS(=O)(=O)c1ccc(NNC(=S)Nc2ccc(OC(F)F)cc2)c([N+](=O)[O-])c1`, the viability by setting is: under setting [1], 86.2%; (at 50 µM (top of the series)) 101% (inactive). Under setting [3], the minimum viability was 93%.
With `O=C(O)CCN1C(=O)/C(=C\c2cccc(Oc3ccccc3)c2)SC1=S`, the viability under setting [1] was determined as 90.5% and the viability (at 50 µM (top of the series)) was 87.3% (inactive). In addition, the minimum viability (at 25 µM, stronger effect = lower value) worked out at 86.3%.
`O=C(CSc1nc2ccccc2c(=O)n1Cc1ccccc1)Nc1ccc(Br)cc1C(=O)O`: the viability is 96.5% under setting [1] and 87.7% (inactive) (at 50 µM (top of the series)). For the setting “at 25 µM, stronger effect = lower value”, the minimum viability came to 81.4%.
On the same counts, the results for `CC(c1ccccc1)N1C(=O)c2ccc(C(=O)Nc3ccccc3C(=O)O)cc2C1=O` (stereo unspecified) are 111%, 100% (inactive) and 85.5%.
